Activity data for one compound are collected here from ChEMBL document CHEMBL5143756, “Identification of a BAZ2A-Bromodomain Hit Compound by Fragment Growing” (ACS Med Chem Lett, 2022).

This test has as its target Bromodomain adjacent to zinc finger domain protein 2A (Homo sapiens) (UniProt Q9UIF9). The experiment in a line: Inhibition of His6-tagged BAZ2A (unknown origin) (1796 to 1899 residues) assessed as residual activity at 100 uM using H3K(Ac)14 substrate by AlphaScreen assay relative to control. In general terms: Alpha assays give light when donor and acceptor beads are brought close together.

Structures are written as SMILES.

Chain of Bromodomain adjacent to zinc finger domain protein 2A (Homo sapiens) (Q9UIF9 whole entry, the tested form may be a part): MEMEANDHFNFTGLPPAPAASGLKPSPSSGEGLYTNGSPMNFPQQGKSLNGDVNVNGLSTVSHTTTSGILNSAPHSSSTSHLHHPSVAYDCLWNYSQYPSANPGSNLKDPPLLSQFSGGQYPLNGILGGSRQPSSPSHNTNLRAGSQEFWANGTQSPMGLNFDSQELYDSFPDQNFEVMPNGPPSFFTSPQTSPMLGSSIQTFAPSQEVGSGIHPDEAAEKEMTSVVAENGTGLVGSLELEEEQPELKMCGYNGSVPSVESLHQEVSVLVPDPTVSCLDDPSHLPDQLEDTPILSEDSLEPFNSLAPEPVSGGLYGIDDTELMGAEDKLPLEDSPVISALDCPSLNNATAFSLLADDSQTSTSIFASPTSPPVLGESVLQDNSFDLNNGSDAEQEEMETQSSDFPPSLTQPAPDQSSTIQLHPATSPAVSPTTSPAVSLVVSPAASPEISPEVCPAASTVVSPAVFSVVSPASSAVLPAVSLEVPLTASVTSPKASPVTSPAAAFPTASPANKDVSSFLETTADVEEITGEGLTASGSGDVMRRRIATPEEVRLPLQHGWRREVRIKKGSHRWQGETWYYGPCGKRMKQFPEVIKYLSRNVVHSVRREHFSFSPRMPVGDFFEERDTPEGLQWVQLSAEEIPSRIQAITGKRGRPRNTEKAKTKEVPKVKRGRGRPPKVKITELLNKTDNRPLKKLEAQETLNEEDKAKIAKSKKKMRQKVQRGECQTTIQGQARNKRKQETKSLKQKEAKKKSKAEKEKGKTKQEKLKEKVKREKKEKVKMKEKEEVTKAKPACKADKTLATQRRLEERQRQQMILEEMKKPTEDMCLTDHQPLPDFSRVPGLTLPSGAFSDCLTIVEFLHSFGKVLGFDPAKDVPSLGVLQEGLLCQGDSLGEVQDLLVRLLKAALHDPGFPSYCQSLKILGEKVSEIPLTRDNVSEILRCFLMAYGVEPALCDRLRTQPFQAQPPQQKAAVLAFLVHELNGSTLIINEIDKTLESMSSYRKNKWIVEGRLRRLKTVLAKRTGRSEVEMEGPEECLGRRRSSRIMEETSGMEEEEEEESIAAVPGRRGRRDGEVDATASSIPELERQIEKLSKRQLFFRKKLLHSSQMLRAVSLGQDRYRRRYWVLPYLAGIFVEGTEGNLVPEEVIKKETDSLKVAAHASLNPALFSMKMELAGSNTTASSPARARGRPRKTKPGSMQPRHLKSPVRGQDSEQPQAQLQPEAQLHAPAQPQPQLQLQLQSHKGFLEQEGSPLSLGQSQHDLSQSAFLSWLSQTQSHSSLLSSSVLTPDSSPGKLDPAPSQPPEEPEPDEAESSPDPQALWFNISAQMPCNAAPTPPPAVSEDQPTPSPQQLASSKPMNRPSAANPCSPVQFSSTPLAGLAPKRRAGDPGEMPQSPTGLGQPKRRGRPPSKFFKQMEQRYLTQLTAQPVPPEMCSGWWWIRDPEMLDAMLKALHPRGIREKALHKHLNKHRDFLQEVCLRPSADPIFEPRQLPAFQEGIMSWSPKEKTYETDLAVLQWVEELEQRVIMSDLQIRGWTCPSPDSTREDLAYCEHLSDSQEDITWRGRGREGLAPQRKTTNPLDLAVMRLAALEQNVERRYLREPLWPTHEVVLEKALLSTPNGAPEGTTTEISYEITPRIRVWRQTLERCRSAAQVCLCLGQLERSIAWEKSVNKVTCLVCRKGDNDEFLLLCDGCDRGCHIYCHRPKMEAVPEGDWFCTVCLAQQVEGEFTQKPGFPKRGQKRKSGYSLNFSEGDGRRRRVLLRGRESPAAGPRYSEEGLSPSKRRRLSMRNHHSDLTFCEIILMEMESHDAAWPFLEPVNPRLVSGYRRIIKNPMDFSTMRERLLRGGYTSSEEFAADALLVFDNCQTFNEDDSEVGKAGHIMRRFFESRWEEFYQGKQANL

As to `CC(=O)c1c(C)[nH]c(-c2csc(N=C(N)N)n2)c1CCC(C)C`, the Activity was more than 50%.
